US20260327264A1, “PEPTIDE INHIBITORS OF INTERLEUKIN-23 RECEPTOR” (Zealand Pharma A/S, priority 2023, published 2026)
Read-outs that look alike come from different tables or passages of the source. *1 amine or outer side, *2 acyl side, *3 side chain or, on linkers, in order; H or OH if unused. Where a SMILES comes first, the peptide text is derived from it. Bridges are numbered along the chain shown (N, C = ends). [ ]: non-standard residue; d: D form. 2Nal = N[C@@H](Cc1ccc2ccccc2c1)C(=O)O; AEF = NCCOc1ccc(C[C@H](N)C(=O)O)cc1; X1 = O=C(Cc1ccc(CN[*:1])cc1)[*:2]; 3Pal = N[C@@H](Cc1cccnc1)C(=O)O; αMeL = CC(C)C[C@](C)(N)C(=O)O; CH2COCH2 = O=C(C[*:1])C[*:2]; 3Amb = NCc1cccc(C(=O)O)c1; Dab = NCC[C@H](N)C(=O)O; βAla = NCCC(=O)O

Assays:
human IL-23R = target: T1, human IL-23R (Homo sapiens, UniProt Q5VWK5); test: Binding assay: displacement of fluorophore (TAMRA)-labelled reference compound from human IL-23R (BRET, Nluc-IL23R fusion protein membranes); conditions: for Emax: read-out: % displacement (hIL-23R binding)
T1 construct: Nanoluc luciferase (Nluc); secretion signal encoded by the plasmid (not specified); expressed in transfected cells; crude membranes used in the assay
T1 sequence (Q5VWK5 22-629): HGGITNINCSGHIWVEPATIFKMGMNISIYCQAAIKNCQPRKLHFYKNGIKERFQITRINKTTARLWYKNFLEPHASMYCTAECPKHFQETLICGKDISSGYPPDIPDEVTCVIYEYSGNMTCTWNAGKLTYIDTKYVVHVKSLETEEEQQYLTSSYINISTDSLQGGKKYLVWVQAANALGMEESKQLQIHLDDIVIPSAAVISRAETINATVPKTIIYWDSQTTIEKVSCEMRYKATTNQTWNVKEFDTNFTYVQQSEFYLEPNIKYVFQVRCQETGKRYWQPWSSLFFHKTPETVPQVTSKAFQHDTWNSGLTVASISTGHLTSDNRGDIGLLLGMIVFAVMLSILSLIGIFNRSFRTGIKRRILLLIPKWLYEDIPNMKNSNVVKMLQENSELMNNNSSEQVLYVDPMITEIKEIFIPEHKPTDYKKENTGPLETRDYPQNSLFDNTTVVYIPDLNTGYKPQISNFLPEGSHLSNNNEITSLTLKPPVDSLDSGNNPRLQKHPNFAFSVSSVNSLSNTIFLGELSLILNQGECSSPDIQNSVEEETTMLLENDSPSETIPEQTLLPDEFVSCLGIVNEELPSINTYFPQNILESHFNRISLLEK
Excerpt: The assay principle relies on Bioluminescence Resonance Energy Transfer (BRET) between a fluorophore-labelled reference compound binding to the IL-23R part of a fusion protein consisting of the IL-23R fused to a Nanoluc luciferase enzyme (Nanoluc). The Nanoluc is placed in the N-terminus in close proximity to the binding domain of the ligand. Upon close proximity between the fluorophore of the fluorophore-labelled compound and the Nanoluc of the fusion protein, bioluminescence energy generated from conversion of a Nanoluc substrate, is transferred to the fluorophore resulting in an increase in BRET. In presence of an unlabelled compound, the unlabelled compound displaces the fluorophore-labelled peptide from its binding site resulting in a decrease in BRET. The concentration for which half of the fluorophore-labelled peptide is displaced by the unlabelled compound depends on the affinity of the compound for the IL-23R, and is termed the IC50 concentration.
The plasmid also contained a gene to confer resistance for the antibiotic hygromycin. A cell line stably expressing the Nluc-IL23R fusion protein was generated by transfection of HEK293 cells with the expression plasmid and selected with hygromycin for 3 weeks in Growth medium consisting of DMEM w/Glutamax-I containing, 10% V/V FBS, 1% V/V P/S, 1 mM Sodium Pyruvate, and 1× NEAA, and 0.3 mg/mL hygromycin. The remaining cells were propagated and considered a stable expressing Nluc-IL23R fusion protein pool clone.
Cells expressing the Nluc-IL23R fusion protein were expanded in Growth medium and membranes prepared by homogenization of a cell pellet from 18 T175 flasks (4° C. in subsequent steps). The cell pellet was lysed Tris 10 mM, 7.5, 1 mM EDTA and protease inhibitors (Complete, Roche) and homogenized using a 15 mL glass-dounce by 50 strokes. The homogenate was spun at spin @1500 rpm for 10 min, the supernatant transferred to SV-34 tubes and spun at 40000 g for 20 min at 4° C. to pellet the crude membranes. The supernatant was then removed, the pellet resuspended in 5 mL buffer containing 50 mM HEPES pH 7.4, 5 mM EGTA, and 5 mM MgCl2, and homogenized. Aliquots of the resuspended and homogenized membranes containing the Nluc-IL23R fusion protein were stored at −80° C. until use.
The plate was sealed with light impermeable plate seals, and incubated on an orbital shaker 400 rpm for 2 hours at room temperature. To determine the BRET ratio, the plate seal was removed and 25 μL of the Nanoluc substrate (Promega N1572) diluted 1:500 was added to each well and incubated for 1-2 minutes on an orbital shaker at 400 rpm. […] The BRET ratio was calculated as the fluorescence from the TAMRA/nanoluc bioluminescence.
Compound potency (IC50) and maximal displacement (% displacement) were estimated by computer-aided curve fitting using a 4-parameter logistic (4PL) non-linear model. The IC50 and maximal for each compound was determined by computer-aided curve fitting using a 4-parameter logistic (4PL) non-linear model.

[1] = test system: IL-23 mediated STAT3 signalling (DB cells); test: Functional inhibition of IL-23 mediated STAT3 signalling (phospho-STAT3 Tyr705) in DB cells; format: cell-based, human; conditions: for hIL-23 (pSTAT3) antagonist % inhibition: Table 3-2, maximal inhibitory response, EC80 of hIL-23
Excerpt: Upon binding of IL-23, the IL-23R forms a heterodimer signalling complex together with IL-12R β1, which through the JAK2/STAT3 pathway promotes phosphorylation of STAT3 to form phospho-STAT3.
For compounds tested in this assay, the response was normalized relative to control values to calculate the IC50 and maximal inhibitory response from a concentration response curve of the compound in presence of a fixed concentration of human IL-23.
The assay procedure was as follows. […] Following preincubation of the DB cells with inhibitor for 15 min in a cell incubator (37° C., 5% CO2), 20 μL of the prepared 3× the EC80 of hIL-23 solution was added to each well and incubated for 90 min in a cell incubator (37° C., 5% CO2). For some wells buffer only or IL-23 only corresponding to the EC80 was added to obtain readouts needed for normalization. To terminate the assay, the plate was spun at 1000 G for 5 min to pellet cells, the supernatant removed using an 8-channel manual pipette, and then added 50 μL/well Complete Lysis Buffer from the MSD STAT3 kit (Cat #K150SVD, Mesoscale) to the cell pellet. To completely lyse cells to release phospho-STAT3 for detection, the plate was shaken for 10 min at room temperature (500 rpm) sealed with aluminium foil and placed at −80° C. for a minimum of 15 min. Detection of the phospho-STAT3 level in the cell lysate from the individual wells was determined using the MSD STAT3 kit (Cat #K150SVD, Mesoscale) and read on a Meso QuickPlex SQ 120 plate reader (Mesoscale).
For data analysis raw data counts from the Meso QuickPlex SQ 120 plate reader were normalized relative to the response by the EC80 of hIL-23 alone (no compound added) and the buffer level.

[2] = Table 3-2, EC80 of hIL-23, read-out: hIL-23 (pSTAT3) antagonist IC50

IC50 (human IL-23R) [nM]	Emax (human IL-23R) [%]	IC50 [1, 2] [nM]	IC50 ([1]; EC80 of hIL-23, read-out: IC50 (pSTAT3)) [nM]	Compound	hIL-23 (pSTAT3) antagonist % inhibition [1] [%]
0.12	97	5.2	–	CNC(=O)[C@H](Cc1cccnc1)NC(=O)[C@H](CCN)NC(=O)[C@@H]1CCC(=O)NCc2ccc(cc2)CC(=O)N[C@@H](CO)C(=O)N[C@H]2CCC(=O)NCC[C@H](NC(=O)[C@H](Cc3ccccc3)NC(=O)[C@H](Cc3c[nH]c4ccccc34)NC2=O)C(=O)N[C@@H](Cc2ccc(OCCN)cc2)C(=O)N[C@@H](Cc2ccc3ccccc3c2)C(=O)N[C@@](C)(CC(C)C)C(=O)N1 [Compound 23, [4-Aminomethyl-phenylacetyl](1c)*SE(2c)WF[Dab](2c)[Y(2-aminoethoxy)][2-Nal][2-Me-Leu]E(1c)[Dab][3-(3-Pyridyl)-Ala]-[NHMe]] ([X1]SEWF[Dab][AEF][2Nal][αMeL]E[Dab][3Pal]-NHMe; lactam 3-6, N-10)	99
–	91	0.038	0.038	CC(C)C[C@]1(C)NC(=O)[C@H](Cc2ccc3ccccc3c2)NC(=O)[C@H](Cc2ccc(OCCN)cc2)NC(=O)[C@@H]2CCNC(=O)CC[C@H](NC(=O)[C@H](CO)NC(=O)Cc3ccc(cc3)CNC(=O)CC[C@@H](C(=O)N[C@@H](CCN)C(=O)N[C@@H](Cc3cccnc3)C(=O)N[C@H](Cc3c[nH]cn3)C(N)=O)NC1=O)C(=O)N[C@@H](Cc1c[nH]c3ccccc13)C(=O)N[C@@H](CCC(N)=O)C(=O)N2 [Compound 10, [4-Aminomethyl-phenylacetyl](1c)*SE(2c)WQ[Dab](2c)[Y(2-aminoethoxy)][2-Nal][2-Me-Leu]E(1c)[Dab][3-(3-Pyridyl)-Ala][{d}H]-[NH2]] ([X1]SEWQ[Dab][AEF][2Nal][αMeL]E[Dab][3Pal][dH]-NH2; lactam 3-6, N-10)	99
–	101	21	–	CC(C)C[C@]1(C)NC(=O)[C@H](Cc2ccc3ccccc3c2)NC(=O)[C@H](Cc2ccc(OCCN)cc2)NC(=O)[C@@H]2CSCC(=O)CSC[C@H](NC(=O)[C@H](CO)NC(=O)Cc3ccc(cc3)CNC(=O)CC[C@@H](C(=O)N[C@@H](CO)C(N)=O)NC1=O)C(=O)N[C@@H](Cc1c[nH]c3ccccc13)C(=O)N[C@@H](CCC(N)=O)C(=O)N2 [Ref 81, [4-Aminomethyl-phenylacetyl](1c)*SC(2a)WQC(2a)[Y(2-aminoethoxy)][2-Nal][2-Me-Leu]E(1c)S-[NH2], reference compound]	95
–	94	–	–	CC(C)C[C@]1(C)NC(=O)[C@H](Cc2ccc3ccccc3c2)NC(=O)[C@H](Cc2ccc(OCCN)cc2)NC(=O)[C@@H]2CSCC(=O)CSC[C@H](NC(=O)[C@H](CO)NC(=O)Cc3ccc(cc3)CNC(=O)CC[C@@H](C(=O)N[C@@H](CCN)C(=O)N[C@@H](Cc3cccnc3)C(N)=O)NC1=O)C(=O)N[C@@H](Cc1c[nH]c3ccccc13)C(=O)N[C@@H](CCC(N)=O)C(=O)N2 [Ref 120, [4-Aminomethyl-phenylacetyl](1c)*SC(2a)WQC(2a)[Y(2-aminoethoxy)][2-Nal][2-Me-Leu]E(1c)[Dab][3-(3-Pyridyl)-Ala]-[NH2], reference compound] ([X1]SCWQC[AEF][2Nal][αMeL]E[Dab][3Pal]-NH2; linker 3-6 via CH2COCH2; lactam N-10)	101
–	110	29	–	CC(C)C[C@]1(C)NC(=O)[C@H](Cc2ccc3ccccc3c2)NC(=O)[C@H](Cc2ccc(OCCN)cc2)NC(=O)[C@@H]2CSCC(=O)CSC[C@H](NC(=O)[C@H](CO)NC(=O)c3cccc(c3)CNC(=O)CC[C@@H](C(=O)N[C@H](CCCNC(=N)N)C(N)=O)NC1=O)C(=O)N[C@@H](Cc1c[nH]c3ccccc13)C(=O)N[C@@H](CCC(N)=O)C(=O)N2 [Ref 41, [(3-Aminomethyl)benzoyl](1c)*SC(2a)WQC(2a)[Y(2-aminoethoxy)][2-Nal][2-Me-Leu]E(1c)[{d}R]-[NH2], reference compound] ([3Amb]SCWQC[AEF][2Nal][αMeL]E[dR]-NH2; linker 3-6 via CH2COCH2; lactam N-10)	99
–	97	–	–	CC(=O)N[C@H]1CCCCNC(=O)CC[C@@H](C(=O)N[C@@H](CCN)C(=O)N[C@@H](Cc2cccnc2)C(N)=O)NC(=O)[C@](C)(CC(C)C)NC(=O)[C@H](Cc2ccc3ccccc3c2)NC(=O)[C@H](Cc2ccc(OCCN)cc2)NC(=O)[C@@H]2CSCC(=O)CSC[C@H](NC(=O)[C@H]([C@@H](C)O)NC1=O)C(=O)N[C@@H](Cc1c[nH]c3ccccc13)C(=O)N[C@@H](CCC(N)=O)C(=O)N2 [Ref 155, [Ac]-K(1c)TC(2a)WQC(2a)[Y(2-aminoethoxy)][2-Nal][2-Me-Leu]E(1c)[Dab][3-(3-Pyridyl)-Ala]-[NH2], reference compound] (Ac-KTCWQC[AEF][2Nal][αMeL]E[Dab][3Pal]-NH2; lactam 1-10; linker 3-6 via CH2COCH2)	100
–	103	18	–	CC(=O)N[C@H]1CCCCNC(=O)CC[C@@H](C(=O)N[C@@H](CCCNC(=N)N)C(N)=O)NC(=O)[C@H](CC(C)C)NC(=O)[C@H](Cc2ccc3ccccc3c2)NC(=O)[C@H](Cc2c[nH]c3ccccc23)NC(=O)[C@@H]2CSCC(=O)CSC[C@H](NC(=O)[C@H](CO)NC1=O)C(=O)N[C@@H](Cc1c[nH]c3ccccc13)C(=O)N[C@@H](CCC(N)=O)C(=O)N2 [Ref 18, [Ac]-K(1c)SC(2a)WQC(2a)W[2-Nal]LE(1c)R-[NH2], reference compound] (HELM PEPTIDE1{[ac].K.S.C.W.Q.C.W.[O=C([C@H](Cc1ccc2ccccc2c1)N[*:1])[*:2]].L.E.R.[am]}|CHEM1{[O=C(C[*:1])C[*:2]]}$PEPTIDE1,PEPTIDE1,2:R3-11:R3|PEPTIDE1,CHEM1,4:R3-1:R1|PEPTIDE1,CHEM1,7:R3-1:R2$$$V2.0)	97
–	104	–	–	CNC(=O)[C@H](Cc1cccnc1)NC(=O)[C@H](CCN)NC(=O)[C@@H]1CCC(=O)NCc2ccc(cc2)CC(=O)N[C@@H](C)C(=O)N[C@H]2CCC(=O)NCC[C@H](NC(=O)[C@H](CCC(N)=O)NC(=O)[C@H](Cc3c[nH]c4ccccc34)NC2=O)C(=O)N[C@@H](Cc2c[nH]c3ccccc23)CC(=O)N[C@@H](Cc2ccc3ccccc3c2)C(=O)NC(C)(C)C(=O)N1 [Compound 45, [4-Aminomethyl-phenylacetyl](1c)*AE(2c)WQ[Dab](2c)[beta-hTrp][2-Nal][Aib]E(1c)[Dab][3-(3-Pyridyl)-Ala]-[NHMe]]	–
–	103	–	–	CC(C)C[C@]1(C)NC(=O)[C@H](Cc2ccc3ccccc3c2)NC(=O)[C@H](Cc2ccc(OCCN)cc2)NC(=O)[C@@H]2CSCC(=O)CSC[C@H](NC(=O)[C@H](CO)NC(=O)CCNC(=O)[C@H](Cc3cccnc3)NC(=O)CC[C@@H](C(=O)N[C@H](CCCNC(=N)N)C(N)=O)NC1=O)C(=O)N[C@@H](Cc1c[nH]c3ccccc13)C(=O)N[C@@H](CCC(N)=O)C(=O)N2 [Compound 2, [3-(3-Pyridyl)-Ala](4c)*[3-Aminopropanoy]SC(2a)WQC(2a)[Y(2-aminoethoxy)][2-Nal][2-Me-Leu]E(4c)[{d}R]-[NH2]] ([3Pal][βAla]SCWQC[AEF][2Nal][αMeL]E[dR]-NH2; linker 4-7 via CH2COCH2; lactam N-11)	–
